Reference: ChEMBL document CHEMBL1140019, “Primary amides as selective inhibitors of cathepsin K” (Bioorg Med Chem Lett, 2007)

Tests used:
Homo sapiens [1] = species: Homo sapiens; assay: Selectivity for humanized cathepsin K over human cathepsin S
Homo sapiens [2] = species: Homo sapiens; assay: Selectivity for humanized cathepsin K over human cathepsin L

SMILES	Ratio IC50 (Homo sapiens [1])	Ratio IC50 (Homo sapiens [2])
CC(C)C[C@H](N[C@@H](c1ccc(-c2ccc(S(C)(=O)=O)cc2)cc1)C(F)(F)F)C(=O)NCC(N)=O	170	–
CSCC[C@H](NC(=O)[C@H](CC(C)C)N[C@@H](c1ccc(-c2ccc(S(C)(=O)=O)cc2)cc1)C(F)(F)F)C(N)=O	–	4300
CC(C)C[C@H](N[C@@H](c1ccc(-c2ccc(S(C)(=O)=O)cc2)cc1)C(F)(F)F)C(=O)N[C@@H](Cc1ccccc1)C(N)=O	–	1700
